The results in this text go back to US20220324835A1 (Nurix Therapeutics, Inc., priority 2018, published 2022).

Type in all cases: cell-based
The subject of test [1] is anergic human T-cells. The test is described as follows: Anergic T-cell activation assessed by IFNγ secretion (ionomycin-induced anergy). The settings on record: anergic T-cells re-challenged with anti-CD3 and anti-CD28 for 24 hours, read-out: IFNγ Fold change from baseline. In outline:
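Human primary T-cells (>95% CD3+) were activated with anti-CD3/anti-CD28 for 2 days, rested 3 days, then made anergic with ionomycin for 18-24 h. Compound (e.g. 10, 1.11, 0.37 μM) was added for 1 h before 24 h anti-CD3/CD28 re-challenge; IFNγ by ELISA or Luminex as fold over untreated anergic baseline, binned A ≤2.50, B 2.51-4.00, C >4.01.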

Test [2] deals with primary human total T-cells. The test is described as follows: T-cell activation assessed by cell proliferation (Cell Trace Violet). In outline:
(§1)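 Readouts are fold change versus compound-free cells under the same stimulation: plate-bound anti-CD3 (OKT3, 10 μg/mL coating) alone or with soluble anti-CD28 at 5 μg/mL, for 48 h. Isolated human total T cells (1×10^5/well) got inhibitor 1 h beforehand at concentrations such as 10, 1.11 or 0.123 μM. Measured: GM-CSF/IFNγ/TNFα secretion, surface CD69, proliferation by dye dilution.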

Test [3] concerns primary human total T-cells. The test is described as follows: T-cell activation assessed by cytokine secretion (GM-CSF, IFNγ, TNFα). In outline: as §1
Setting [4] is: CD3/CD28 stimulation, CD4 T-cells, read-out: % CP (cell proliferation) (CD4).
[5] abbreviates: CD3/CD28 stimulation, CD8 T-cells, read-out: % CP (cell proliferation) (CD8).
[6] abbreviates: CD3 alone stimulation, CD8 T-cells, read-out: % CP (cell proliferation) (CD8).
The mark [7] stands for this setting: CD3/CD28 stimulation, read-out: GM-CSF secretion.
Where [8] appears, read: CD3/CD28 stimulation, read-out: IFNγ secretion.
The mark [9] stands for this setting: CD3/CD28 stimulation, read-out: TNFα secretion.
[10] abbreviates: CD3 alone stimulation, read-out: GM-CSF secretion.
[11] abbreviates: CD3 alone stimulation, read-out: IFNγ secretion.
The mark [12] stands for this setting: CD3 alone stimulation, read-out: TNFα secretion.

The structures appear in SMILES notation.

Take `Cc1cc2c(c(C3CC3)n1)CN(c1cccc([C@H](C)Cc3nncn3C)c1)C2=O` [Compound 372, 4-cyclopropyl-6-methyl-2-{3-[(2R)-1-(4-methyl-4H-1,2,4-triazol-3-yl)propan-2-yl]phenyl}-1H,2H,3H-pyrrolo[3,4-c]pyridin-1-one]: the fold induction at 0.37 µM in test [1] is at most 2.5. Moreover, the fold induction at 1.11 µM in test [1] is at most 2.5; in test [2] (setting [4]) it was under 2; in test [2] (setting [5]), under 2; in test [2] (setting [6]) it was under 2; in test [3] (setting [7]) it was at most 1.5; in test [3] (setting [8]), under 2. The fold induction at 1.11 µM in test [3] (setting [9]) was at most 1.5; in test [3] (setting [10]), at most 1.5; in test [3] (setting [11]), under 2; in test [3] (setting [12]), at most 1.5. For the same molecule, the fold induction at 10 µM was 2.51 to 4 in test [1]; over 4 in test [2] (setting [4]); 2.01 to 3 in test [2] (setting [5]); 2.01 to 3 in test [2] (setting [6]); 2.01 to 4 in test [3] (setting [7]); under 2 in test [3] (setting [8]). In addition, the fold induction at 10 µM is 2.01 to 4 in test [3] (setting [9]), 1.51 to 2 in test [3] (setting [10]), under 2 in test [3] (setting [11]) and at most 1.5 in test [3] (setting [12]).
Regarding `CNCc1ccc(C(=O)Nc2cccc([C@H](C)Cc3nncn3C)c2)nc1C1CC1` [Compound 376, (R)-6-cyclopropyl-N-(3-(1-(4-methyl-4H-1,2,4-triazol-3-yl)propan-2-yl)phenyl)-5-((methylamino)methyl)picolinamide], the fold induction at 0.37 µM in test [1] is at most 2.5. Moreover, the fold induction at 1.11 µM is at most 2.5 in test [1]; over 4 in test [2] (setting [4]); 3.01 to 4 in test [2] (setting [5]); over 4 in test [2] (setting [6]); 2.01 to 4 in test [3] (setting [7]); under 2 in test [3] (setting [8]). Besides, the fold induction at 1.11 µM in test [3] (setting [9]) is 2.01 to 4; in test [3] (setting [10]) it was 1.51 to 2; in test [3] (setting [11]), 2.01 to 3; in test [3] (setting [12]) it was at most 1.5. The fold induction at 10 µM was over 4.01 in test [1]; over 4 in test [2] (setting [4]); over 4 in test [2] (setting [5]); over 4 in test [2] (setting [6]); over 4 in test [3] (setting [7]); under 2 in test [3] (setting [8]). The fold induction at 10 µM lay within 2.01 to 4 in test [3] (setting [9]), 2.01 to 4 in test [3] (setting [10]), 3.01 to 4 in test [3] (setting [11]) and 1.51 to 2 in test [3] (setting [12]).
